Source: patent US20260048051A1, “TREATMENT OF INFLAMMATORY BOWEL DISEASE” (Atomwise Inc., priority 2024, published 2026)

Target: T1, TYK2-JH2 (Homo sapiens, UniProt P29597)
T1 construct: TYK JH2 enzyme mix (ChemPartner: CP20210818A-BV); purchased ChemPartner CP20210818A-BV
Assay: TYK2-JH2 HTRF binding assay (ligand efficiency)
Details: calculated from binding-assay IC50 (Equation 1)
Method: The following example describes the TYK2-JH2 HTRF binding assay used to determine the ligand efficiency of the TYK2 inhibitors.
To calculate ligand efficiency, Equation 1 is applied: […]
in which IC50 comes from the binding assay used to determine compound potency.
TYK JH2 enzyme mix (ChemPartner: CP20210818A-BV), tracer (ChemPartner: CP-0029472-051) and mAb Anti-6HIS Tb cryptate Gold (Cisbio: Cat No. 61HI2TLA) mix were prepared in assay buffer (10 mM MgCl2, 20 mM HEPES pH 7.5, 0.01% Triton X-100, 1 mM DTT). Compounds diluted in DMSO (Final Concentrations 0.1 to 0.000005 [μM]) and enzyme mix (0.5 nM Final Concentration) were added to 384 well plates, briefly centrifuged and incubated at room temperature for 10 minutes. After incubation, tracer mix (Tracer-35 nM final concentration); (MAb Anti-6HIS Tb cryptate Gold-0.5× final)) was added, briefly centrifuged then incubate at room temperature 60 minutes. After incubation, plates were read by Envision TR-FRET (Ex340/Em495/520) protocol (PerkinElmer-Envision 2104 multilabel plate reader).

T1 sequence (P29597 589-875 limits assumed): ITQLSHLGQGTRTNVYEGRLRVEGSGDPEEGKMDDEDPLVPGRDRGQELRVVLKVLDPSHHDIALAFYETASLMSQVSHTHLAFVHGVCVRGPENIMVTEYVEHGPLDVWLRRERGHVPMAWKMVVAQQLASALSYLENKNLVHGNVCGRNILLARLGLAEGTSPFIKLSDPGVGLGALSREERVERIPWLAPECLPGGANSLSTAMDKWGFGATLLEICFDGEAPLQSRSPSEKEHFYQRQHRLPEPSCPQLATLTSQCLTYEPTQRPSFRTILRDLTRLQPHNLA

Structure (SMILES)	Ligand Efficiency
COc1ccnc(Nc2cc(Nc3cccc(C)n3)ncn2)c1S(C)(=O)=O [Compound 65, N^4-(4-methoxy-3-(methylsulfonyl)pyridin-2-yl)-N^6-(6-methylpyridin-2-yl)pyrimidine-4,6-diamine]	††† (†††: >0.39)
Cc1cccc(Nc2cc(Nc3ccncc3C(N)=O)ncn2)n1 [Compound 51, 4-((6-((6-methylpyridin-2-yl)amino)pyrimidin-4-yl)amino) nicotinamide]	††† (†††: >0.39)
CC(c1ccc(Nc2cc(Nc3ncc(C4COC4)cc3S(C)(=O)=O)ncn2)nc1)N1CC2(COC2)C1 (stereo not shown) [Compound 78, N^4-(5-(1-(2-oxa-6-azaspiro[3.3]heptan-6-yl)ethyl)pyridin-2-yl)-N^6-(3-(methylsulfonyl)-5-(oxetan-3-yl)pyridin-2-yl)pyrimidine-4,6-diamine]	† (†: < 0.37)
C[C@@H](c1ccc(Nc2cc(Nc3ncccc3S(C)(=O)=O)ncn2)nc1)N1CC2(CCOC2)C1 [Compound 32, (S)—N^4-(5-(1-(6-oxa-2-azaspiro[3.4]octan-2-yl)ethyl)pyridin-2-yl)-N^6-(3-(methylsulfonyl)pyridin-2-yl)pyrimidine-4,6-diamine]	††† (†††: >0.39)
CS(=O)(=O)c1ccccc1Nc1cc(Nc2ccc(C(=O)NC3COC3)cn2)ncn1 [Compound 79, 6-((6-((2-(methylsulfonyl)phenyl)amino)pyrimidin-4-yl)amino)-N-(oxetan-3-yl)nicotinamide]	†† (††: 0.37-0.39)
Cc1cccnc1Nc1cc(Nc2ccccc2C(N)=O)ncn1 [Compound 68, 2-((6-((3-methylpyridin-2-yl)amino)pyrimidin-4-yl)amino) benzamide]	††† (†††: >0.39)
CS(=O)(=O)c1cccnc1Nc1cc(Nc2ccc(NC3CC(F)(F)C3)cn2)ncn1 [Compound 37, N^4-(5-(3,3-difluorocyclobutylamino)pyridin-2-yl)-N^6-(3-(methylsulfonyl)pyridin-2-yl)pyrimidine-4,6-diamine]	††† (†††: >0.39)
CS(=O)(=O)c1ccccc1Nc1cc(Nc2ccc(C3(NC4COC4)CC3)cn2)ncn1 [Compound 41, N^4-(2-(methylsulfonyl)phenyl)-N^6-(5-(1-(oxetan-3-ylamino)cyclopropyl)pyridin-2-yl)pyrimidine-4,6-diamine]	†† (††: 0.37-0.39)
Cc1cccc(Nc2cc(Nc3ncccc3C(N)=O)ncn2)n1 [Compound 52, 2-((6-((6-methylpyridin-2-yl)amino)pyrimidin-4-yl)amino) nicotinamide]	††† (†††: >0.39)
CS(=O)(=O)c1ccccc1Nc1cc(Nc2ccc(CNC3CCOC3)cn2)ncn1 (stereo not shown) [Compound 28, N^4-(2-(methylsulfonyl)phenyl)-N^6-(5-((tetrahydrofuran-3-ylamino)methyl)pyridin-2-yl)pyrimidine-4,6-diamine]	†† (††: 0.37-0.39)
CC1(Nc2ccc(Nc3cc(Nc4ncccc4S(C)(=N)=O)ncn3)nc2)COC1 (stereo not shown) [Compound 73, N^4-(5-((3-methyloxetan-3-yl)amino)pyridin-2-yl)-N^6-(3-(S-methylsulfonimidoyl)pyridin-2-yl)pyrimidine-4,6-diamine]	††† (†††: >0.39)
CS(=O)(=O)c1ccccc1Nc1cc(NC(=O)C2CC2)ncn1 [Compound 69, N^4-(cyclopropylcarbonyl)-N^6-(2-(methylsulfonyl)phenyl)pyrimidine-4,6-diamine]	††† (†††: >0.39)
C[C@@H](c1ccc(Nc2cc(Nc3ncccc3S(C)(=O)=O)ncn2)nc1)N1C[C@H]2COC[C@H]2C1 [Compound 25, N^4-(3-(methylsulfonyl)pyridin-2-yl)-N^6-(5-(1-((3aR,6aS)-tetrahydro-1H-furo[3,4-c]pyrrol-5(3H)-yl)ethyl)pyridin-2-yl)pyrimidine-4,6-diamine]	††† (†††: >0.39)
Cc1cccc(Nc2cc(Nc3cccnc3C(N)=O)ncn2)n1 [Compound 50, 3-((6-((6-methylpyridin-2-yl)amino)pyrimidin-4-yl)amino) picolinamide]	††† (†††: >0.39)
CC(c1ccc(Nc2cc(Nc3ncccc3S(C)(=O)=O)ncn2)nc1)N1CC2(CC(C(F)F)C2)C1 (stereo not shown) [Compound 34, N^4-(5-(1-(6-(difluoromethyl)-2-azaspiro[3.3]heptan-2-yl)ethyl)pyridin-2-yl)-N^6-(3-(methylsulfonyl)pyridin-2-yl)pyrimidine-4,6-diamine]	†† (††: 0.37-0.39)
Cc1ccnc(Nc2cc(Nc3ccccc3S(C)(=O)=O)ncn2)c1 [Compound 44, N^4-(4-methylpyridin-2-yl)-N^6-(2-(methylsulfonyl)phenyl) pyrimidine-4,6-diamine]	††† (†††: >0.39)

Structure (SMILES)	Ligand Efficiency
COc1ccnc(Nc2cc(Nc3ccc(C(C)N4CC5(COC5)C4)cn3)ncn2)c1S(C)(=O)=O (stereo not shown) [Compound 76, N^4-(5-(1-(2-oxa-6-azaspiro[3.3]heptan-6-yl)ethyl)pyridin-2-yl)-N^6-(4-methoxy-3-(methylsulfonyl)pyridin-2-yl)pyrimidine-4,6-diamine]	† (†: < 0.37)
CS(=O)(=O)c1cccnc1Nc1cc(Nc2cccc(C(F)(F)F)n2)ncn1 [Compound 19, N^4-(3-(methylsulfonyl)pyridin-2-yl)-N^6-(6-(trifluoromethyl)pyridin-2-yl)pyrimidine-4,6-diamine]	††† (†††: >0.39)
C[C@H]1COCCN1c1ccc(Nc2cc(Nc3ccccc3S(C)(=O)=O)ncn2)nc1 [Compound 54, (S)—N^4-(5-(3-methylmorpholino)pyridin-2-yl)-N^6-(2-(methylsulfonyl)phenyl)pyrimidine-4,6-diamine]	† (†: < 0.37)
Cc1cnnc(Nc2cc(Nc3ccccc3C(N)=O)ncn2)c1 [Compound 47, 2-((6-((5-methylpyridazin-3-yl)amino)pyrimidin-4-yl)amino) benzamide]	††† (†††: >0.39)
CS(=O)(=O)c1cccnc1Nc1cc(Nc2ccc([C@@H](N3CC4(COC4)C3)C(F)(F)F)cn2)ncn1 [Compound 16, (R)—N^4-(3-(methylsulfonyl)pyridin-2-yl)-N^6-(5-(2,2,2-trifluoro-1-(2-oxa-6-azaspiro[3.3]heptan-6-yl)ethyl)pyridin-2-yl)pyrimidine-4,6-diamine]	†† (††: 0.37-0.39)
CC(NC1COC1)c1ccc(Nc2cc(Nc3ccccc3S(C)(=O)=O)ncn2)nc1 (stereo in doubt) [Compound 40, (R)—N^4-(2-(methylsulfonyl)phenyl)-N^6-(5-(1-(oxetan-3-ylamino)ethyl)pyridin-2-yl)pyrimidine-4,6-diamine]	††† (†††: >0.39)
C[C@@H](c1ccc(Nc2cc(Nc3ncc(Cl)cc3S(C)(=O)=O)ncn2)nc1)N1CC2(COC2)C1 [Compound 14, (S)—N^4-(5-(1-(2-oxa-6-azaspiro[3.3]heptan-6-yl)ethyl)pyridin-2-yl)-N^6-(5-chloro-3-(methylsulfonyl)pyridin-2-yl)pyrimidine-4,6-diamine]	††† (†††: >0.39)
Cc1cccc(Nc2cc(Nc3ccccc3S(C)(=O)=O)nc(N)n2)n1 [Compound 57, N^4-(6-methylpyridin-2-yl)-N^6-(2-(methylsulfonyl)phenyl)pyrimidine-2,4,6-triamine]	††† (†††: >0.39)
CC(NC1CCOC1)c1ccc(Nc2cc(Nc3ccccc3S(C)(=O)=O)ncn2)nc1 (stereo not shown) [Compound 26, N^4-(2-(methylsulfonyl)phenyl)-N^6-(5-(1-(tetrahydrofuran-3-ylamino)ethyl)pyridin-2-yl)pyrimidine-4,6-diamine]	†† (††: 0.37-0.39)
C[C@@H](c1ccc(Nc2cc(Nc3ncccc3S(C)(=O)=O)ncn2)nc1)N1CCCC12CCOCC2 [Compound 29, (S)—N^4-(5-(1-(8-oxa-1-azaspiro[4.5]decan-1-yl)ethyl)pyridin-2-yl)-N^6-(3-(methylsulfonyl)pyridin-2-yl)pyrimidine-4,6-diamine]	†† (††: 0.37-0.39)
COc1ccc(Nc2cc(NC(=O)C3CC3)ncn2)c(C(N)=O)c1 [Compound 70, 2-((6-(cyclopropanecarboxamido)pyrimidin-4-yl)amino)-5-methoxy benzamide]	††† (†††: >0.39)
CC1(Nc2cnc(Nc3cc(Nc4ncccc4S(C)(=O)=O)ncn3)cn2)COC1 [Compound 74, N^4-(5-(3-methyloxetan-3-ylamino)pyrazin-2-yl)-N^6-(3-(methylsulfonyl)pyridin-2-yl)pyrimidine-4,6-diamine]	††† (†††: >0.39)
CC(C)[C@@H](c1ccc(Nc2cc(Nc3ncccc3S(C)(=O)=O)ncn2)nc1)N1CC2(COC2)C1 [Compound 13, (S)—N^4-(5-(2-methyl-1-(2-oxa-6-azaspiro[3.3]heptan-6-yl)propyl)pyridine-2-yl)-N^6-(3-(methylsulfonyl)pyridin-2-yl)pyrimidine-4,6-diamine]	†† (††: 0.37-0.39)
Cn1cc(-c2ccnc(Nc3cc(Nc4ccc(NC5(C)COC5)cn4)ncn3)c2S(C)(=O)=O)cn1 [Compound 72, N^4-(4-(1-methyl-1H-pyrazol-4-yl)-3-(methylsulfonyl)pyridin-2-yl)-N^6-(5-(3-methyloxetan-3-ylamino)pyridin-2-yl)pyrimidine-4,6-diamine]	† (†: < 0.37)
CC(C)(NC1COC1)c1ccc(Nc2cc(Nc3ccccc3S(C)(=O)=O)ncn2)nc1 [Compound 39, N^4-(2-(methylsulfonyl)phenyl)-N^6-(5-(2-(oxetan-3-ylamino)propan-2-yl)pyridin-2-yl)pyrimidine-4,6-diamine]	†† (††: 0.37-0.39)
